Results on 19 molecules are retold here after PubChem BioAssay (NCI).

The structures appear in SMILES notation.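 A five-concentration, 48-hour dose response in 96-well plates underlies each endpoint, interpolated linearly between surrounding concentrations. GI50: concentration for 50% inhibition of growth. TGI: total growth inhibition.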

Test systems include COLO 205 colon; IGROV1 ovarian; M14 melanoma; MALME-3M melanoma; RXF 393 renal; SF-268 CNS; SF-295 CNS; SNB-75 CNS; UO-31 renal; HL-60(TB) leukemia.
Holding throughout (test): NCI tumour cell line growth inhibition, 48 h

As to `COc1ccc2c(c1)c(C1(c3cn(C)c4ccc(OC)cc34)C(=O)Nc3ccc(F)cc31)cn2C`, the GI50 in the experiment on COLO 205 colon is 2.62 µM; in the experiment on IGROV1 ovarian, 4.26 µM; with M14 melanoma, 4.19 µM; in the experiment on MALME-3M melanoma, 6.52 µM; in the experiment with RXF 393 renal, 3.74 µM; with SF-268 CNS, 5.7 µM. Moreover, the GI50 in the experiment with SF-295 CNS is 2.95 µM; with SNB-75 CNS it was 3.09 µM; in the experiment on UO-31 renal it was 2.27 µM. The TGI is 6.36 µM in the experiment on COLO 205 colon; more than 100 µM with IGROV1 ovarian; 68.8 µM in the experiment with M14 melanoma; 89.5 µM with MALME-3M melanoma; 16.2 µM in the experiment on RXF 393 renal; more than 100 µM in the experiment on SF-268 CNS. In addition, the TGI was 18.3 µM in the experiment with SF-295 CNS, more than 100 µM in the experiment on SNB-75 CNS and more than 100 µM with UO-31 renal.

Take `O=c1cc(Cl)nc[nH]1`: the TGI in the experiment on COLO 205 colon, in the experiment on HL-60(TB) leukemia, in the experiment on IGROV1 ovarian, with M14 melanoma, in the experiment on MALME-3M melanoma and in the experiment with SF-268 CNS was more than 100 µM throughout. In addition, the TGI with SF-295 CNS, in the experiment on SNB-75 CNS and with UO-31 renal was more than 100 µM throughout.

In the case of `COc1ccc2c(c1)CC[C@@H]1[C@@H]2CC[C@@]2(C)[C@H]1CC1(CCCCC1)[C@@H]2O`, the GI50 in the experiment on COLO 205 colon was 7.35 µM; with IGROV1 ovarian, 30.9 µM; with M14 melanoma, 13.8 µM; in the experiment on MALME-3M melanoma, 18.8 µM; in the experiment with RXF 393 renal, 4.68 µM; in the experiment with SF-268 CNS it was 12 µM. Further, the GI50 in the experiment with SF-295 CNS is 9.05 µM; in the experiment with SNB-75 CNS, 16.4 µM; in the experiment on UO-31 renal, 16.8 µM. The TGI amounted to 26 µM in the experiment with COLO 205 colon; 80.7 µM in the experiment on IGROV1 ovarian; 31.4 µM in the experiment with M14 melanoma; 36.3 µM in the experiment on MALME-3M melanoma; 29.2 µM in the experiment with RXF 393 renal; 26.6 µM with SF-268 CNS. For the same molecule, the TGI worked out at 23.1 µM in the experiment on SF-295 CNS, 35.1 µM in the experiment on SNB-75 CNS and 47.2 µM in the experiment with UO-31 renal.

Regarding `CC1=CC(C)(C)N=C2SC(c3ccc(Cl)cc3)=NN12`, the TGI with COLO 205 colon was more than 100 µM; in the experiment with HL-60(TB) leukemia, 32.5 µM; in the experiment with IGROV1 ovarian, more than 100 µM; in the experiment with M14 melanoma it was more than 100 µM; with MALME-3M melanoma, 75.6 µM; in the experiment with SF-268 CNS it was more than 100 µM. The results for the TGI in the experiment on SF-295 CNS and in the experiment on UO-31 renal were more than 100 µM and 50.4 µM, respectively.

Regarding `Cc1cc(NS(=O)(=O)c2ccc(NC(=O)c3cccc4c(N)c5ccccc5nc34)cc2)no1`, the TGI with COLO 205 colon came out at 53.6 µM; with IGROV1 ovarian, 59.3 µM; in the experiment with M14 melanoma, 54 µM; in the experiment with MALME-3M melanoma, 77.4 µM; with RXF 393 renal, 31.9 µM; in the experiment on SF-268 CNS it was 76.9 µM. Moreover, the results for the TGI in the experiment on SF-295 CNS, with SNB-75 CNS and in the experiment with UO-31 renal were 67.2 µM, more than 100 µM and 95.7 µM, respectively.

On to `CC(=O)O[C@@H]1CO[C@H]2O[C@H]3[C@@H](C(C=O)=C[C@H](O)[C@@H]4C5=C(C(C)C)CC[C@]5(C)CC[C@@]34C)[C@@]2(O)C1=O`, for which the TGI in the experiment on COLO 205 colon came out at 0.249 µM; in the experiment with IGROV1 ovarian, 0.714 µM; with M14 melanoma, 0.723 µM; in the experiment on MALME-3M melanoma it was 0.347 µM; with RXF 393 renal it was 0.362 µM; with SF-268 CNS, 0.667 µM. In addition, the TGI with SF-295 CNS came out at 3.98 µM; in the experiment with SNB-75 CNS, 1.35 µM; in the experiment with UO-31 renal, 0.598 µM.

For `N=C(N)SCCc1cn2ccccc2n1`, the TGI in the experiment with COLO 205 colon, in the experiment with HL-60(TB) leukemia, in the experiment with M14 melanoma, in the experiment with MALME-3M melanoma, with SF-268 CNS and in the experiment on SF-295 CNS was more than 100 µM each time. Moreover, the TGI with SNB-75 CNS and in the experiment with UO-31 renal was more than 100 µM throughout.

With `Nc1ccc(Nc2nc(F)nc(-c3c4ccccc4c4n3CCS4)n2)cc1`, the TGI came out at 41.5 µM with COLO 205 colon; 29.9 µM in the experiment with IGROV1 ovarian; 31.6 µM with M14 melanoma; 31.6 µM with MALME-3M melanoma; 43.3 µM in the experiment on RXF 393 renal; 37.1 µM in the experiment on SF-268 CNS. For the same molecule, the results for the TGI with SF-295 CNS, in the experiment with SNB-75 CNS and in the experiment with UO-31 renal were 33.7 µM, 31 µM and 22.2 µM, respectively.

Regarding `O=S1(=O)CCN(Cc2ccccn2)CC1`, the TGI in the experiment on COLO 205 colon, with IGROV1 ovarian, in the experiment with M14 melanoma, in the experiment on MALME-3M melanoma, with RXF 393 renal and in the experiment on SF-268 CNS was more than 100 µM in each case. For the same molecule, the TGI in the experiment on SF-295 CNS, with SNB-75 CNS and in the experiment with UO-31 renal was more than 100 µM throughout.

As for `Brc1ccc([I+]c2ccc(Br)cc2)cc1`, the GI50 is 1.18 µM in the experiment with COLO 205 colon; 1.06 µM in the experiment on IGROV1 ovarian; 1.53 µM with M14 melanoma; 1.38 µM in the experiment on MALME-3M melanoma; 2.67 µM in the experiment with RXF 393 renal; 1.03 µM in the experiment on SF-268 CNS. Also, the GI50 was 1.7 µM with SF-295 CNS, 1.6 µM in the experiment on SNB-75 CNS and 5.96 µM in the experiment on UO-31 renal. The TGI was determined as 2.68 µM with COLO 205 colon; 6.8 µM with IGROV1 ovarian; 5.14 µM with M14 melanoma; 12.3 µM in the experiment on MALME-3M melanoma; 11.5 µM in the experiment on RXF 393 renal; 2.4 µM in the experiment on SF-268 CNS. Besides, the TGI with SF-295 CNS stood at 5.85 µM; with SNB-75 CNS it was 8.03 µM; in the experiment with UO-31 renal it was 26.1 µM.

For `CCC[CH2][Sn]([CH2]CCC)([O]C(=O)c1cccc(F)c1)[O]C(=O)c1cccc(F)c1`, the GI50 in the experiment on COLO 205 colon is 0.852 µM; with IGROV1 ovarian, 1.43 µM; in the experiment on M14 melanoma it was 1.34 µM; in the experiment on MALME-3M melanoma, 0.907 µM; in the experiment on RXF 393 renal, 0.185 µM; in the experiment with SF-268 CNS, 1.16 µM. For the same molecule, the GI50 is 1.48 µM in the experiment on SF-295 CNS, 0.657 µM with SNB-75 CNS and 1.23 µM in the experiment on UO-31 renal. For the same molecule, the TGI with COLO 205 colon stood at 2.18 µM; in the experiment on IGROV1 ovarian it was 2.93 µM; in the experiment on M14 melanoma, 2.88 µM; with MALME-3M melanoma, 2.25 µM; in the experiment with RXF 393 renal it was 0.758 µM; with SF-268 CNS it was 2.53 µM. Further, the TGI came out at 2.86 µM in the experiment on SF-295 CNS, 1.94 µM with SNB-75 CNS and 2.47 µM in the experiment with UO-31 renal.

Consider `O=C1/C(=C/c2ccccc2Cl)N=C(c2ccccc2)N1Cc1ccco1`, for which the GI50 was 51.4 µM with COLO 205 colon; 18.6 µM in the experiment with M14 melanoma; 16.6 µM with MALME-3M melanoma; 16.4 µM in the experiment on RXF 393 renal; 50.2 µM with SF-268 CNS; 50.3 µM in the experiment on SNB-75 CNS. Moreover, in the experiment on UO-31 renal, the GI50 is 55.4 µM. The TGI was more than 100 µM with COLO 205 colon; 38.2 µM in the experiment on M14 melanoma; 36 µM in the experiment with MALME-3M melanoma; 93 µM in the experiment on RXF 393 renal; more than 100 µM in the experiment with SF-268 CNS; more than 100 µM with SNB-75 CNS. The same molecule showed a TGI in the experiment on UO-31 renal of more than 100 µM.

With `CC(C)C(=O)N[C@@H](C)C(=O)N(Cc1ccc2ccccc2c1)N=O`, the TGI in the experiment on COLO 205 colon, in the experiment with IGROV1 ovarian, with M14 melanoma, in the experiment with MALME-3M melanoma, with SF-268 CNS and in the experiment on SF-295 CNS was more than 100 µM throughout. For the same molecule, the TGI in the experiment with SNB-75 CNS and with UO-31 renal was more than 100 µM each time.

On to `Nc1ccc2c(c1)C(=O)c1c(F)cccc1-2`, for which the TGI in the experiment with COLO 205 colon, in the experiment on M14 melanoma, with MALME-3M melanoma, in the experiment on RXF 393 renal, in the experiment with SF-268 CNS and with SF-295 CNS was more than 100 µM each time. For the same molecule, the TGI in the experiment with SNB-75 CNS and in the experiment on UO-31 renal was more than 100 µM throughout.

As for `O=C(O)/C(=C/c1ccccc1[N+](=O)[O-])c1ccccc1`, the TGI in the experiment with COLO 205 colon, in the experiment on HL-60(TB) leukemia, in the experiment with IGROV1 ovarian, in the experiment on M14 melanoma, in the experiment on SF-268 CNS and in the experiment with SF-295 CNS was more than 100 µM in each case. Moreover, the TGI with SNB-75 CNS and in the experiment on UO-31 renal was more than 100 µM each time.

With `CC(=O)OC1CCn2nnc(COC(=O)NC(C)C)c21` (stereo not given), the TGI in the experiment on IGROV1 ovarian, with M14 melanoma, in the experiment on MALME-3M melanoma, in the experiment with RXF 393 renal, in the experiment on SF-295 CNS and in the experiment on SNB-75 CNS was more than 100 µM each time. The molecule further gave a TGI with UO-31 renal of more than 100 µM.

Take `O=C1Nc2ccccc2C1Cc1ccccc1` (stereo not given): the TGI in the experiment with COLO 205 colon, in the experiment with HL-60(TB) leukemia, in the experiment on IGROV1 ovarian, in the experiment with M14 melanoma, with MALME-3M melanoma and in the experiment with SF-268 CNS was more than 100 µM in each case. The TGI in the experiment with SNB-75 CNS and with UO-31 renal was more than 100 µM each time.

With `COc1ccc2c3c1C(=O)CCC3CO2` (stereo not given), the TGI with COLO 205 colon, in the experiment on HL-60(TB) leukemia, in the experiment with IGROV1 ovarian, in the experiment with M14 melanoma, with MALME-3M melanoma and with SF-268 CNS was more than 100 µM in each case. The TGI in the experiment on SF-295 CNS and in the experiment with UO-31 renal was more than 100 µM each time.

As to `COc1cnc2c(c1)C(=O)c1c-2n(CCCn2ccnc2)c(=O)c2cc(Cl)ccc12`, the GI50 in the experiment with COLO 205 colon was 0.0332 µM; with M14 melanoma, 0.0282 µM; with MALME-3M melanoma it was 0.293 µM; in the experiment on RXF 393 renal, 0.0407 µM; in the experiment with SF-268 CNS it was 0.0343 µM; in the experiment with SF-295 CNS, 0.0251 µM. The results for the GI50 in the experiment on SNB-75 CNS and in the experiment with UO-31 renal were 0.219 µM and 0.0264 µM, respectively. Also, the TGI in the experiment with COLO 205 colon is 2.09 µM; with M14 melanoma, 0.162 µM; in the experiment on MALME-3M melanoma, 37.4 µM; with RXF 393 renal, 0.235 µM; in the experiment on SF-268 CNS, more than 100 µM; with SF-295 CNS, 0.0794 µM. The TGI in the experiment with SNB-75 CNS came to 18.9 µM; in the experiment with UO-31 renal, 2.34 µM.
